Experimental data from patent US6737383B1, “Herbicidal oxadiazolidines” (priority 1999, dated 2004).

Experiments:
[1] = test system: velvetleaf; test: Test B pre/postemergence velvetleaf; format: in vivo, Abutilon theophrasti; settings: Preemergence; for Plant response rating, Velvetleaf: Rate 125 g/ha
Text: (§1) Seeds of bedstraw (Galium aparine), blackgrass (Alopecurus myosuroides), surinam grass (Brachiaria decumbens), cocklebur (Xanthium strumarium), corn (Zea mays), crabgrass (Digitaria sanguinalis), giant foxtail (Setaria faberii), morningglory (Ipomoea hederacea), pigweed (Amaranthus retroflexus), rape (Brassica napus), soybean (Glycine max), sugar beet (Beta vulgaris), velvetleaf (Abutilon theophrasti), wheat (Triticum aestivum), wild oat (Avena fatua) and purple nutsedge (Cyperus rotundus) tubers were planted and treated preemnergence with test chemicals formulated in a non-phytotoxic solvent mixture which included a surfactant.
(§2) At the same time, these crop and weed species were also treated with postemergence applications of test chemicals formulated in the same manner. Plants ranged in height from 2 to 18 cm (1- to 4-leaf stage) for postemergence treatments. Plant species in the flood test consisted of rice (Oryza sativa), smallflower flatsedge (Cyperus difformis), duck salad (Heteranthera limosa) and bamyardgrass (Echinochloa crus-galli) grown to the 2-leaf stage for testing. Treated plants and controls were maintained in a greenhouse for twelve to sixteen days, after which all species were compared to controls and visually evaluated. Plant response ratings, summarized in Table B, are based on a scale of 0 to 10 where 0 is no effect and 10 is complete control. A dash (−) response means no test result.

[2] = test system: soybean; test: Test B pre/postemergence soybean; format: in vivo, Glycine max; settings: Preemergence; for Plant response rating, Soybean: Rate 125 g/ha
Text: as §1, §2

[3] = test system: crabgrass; test: Test B pre/postemergence crabgrass; format: in vivo, Digitaria sanguinalis; settings: Preemergence; for Plant response rating, Crabgrass: Rate 125 g/ha
Text: as §1, §2

[4] = test system: wheat; test: Test B pre/postemergence wheat; format: in vivo, Triticum aestivum; settings: Preemergence; for Plant response rating, Wheat: Rate 125 g/ha
Text: as §1, §2

[5] = test system: wild oat; test: Test B pre/postemergence wild oat; format: in vivo, Avena fatua; settings: Preemergence; for Plant response rating, Wild oats: Rate 125 g/ha
Text: as §1, §2

[6] = test system: sugar beet; test: Test B pre/postemergence sugar beet; format: in vivo, Beta vulgaris; settings: Preemergence; for Plant response rating, Sugarbeets: Rate 125 g/ha
Text: as §1, §2

[7] = test system: giant foxtail; test: Test B pre/postemergence giant foxtail; format: in vivo, Setaria faberii; settings: Preemergence; for Plant response rating, Giant foxtail: Rate 125 g/ha
Text: as §1, §2

[8] = test system: bedstraw; test: Test B pre/postemergence bedstraw; format: in vivo, Galium aparine; settings: Preemergence
Text: as §1, §2

[9] = test system: corn; test: Test B pre/postemergence corn; format: in vivo, Zea mays; settings: Preemergence; for Plant response rating, Corn: Rate 125 g/ha
Text: as §1, §2

[10] = test system: purple nutsedge; test: Test B pre/postemergence purple nutsedge; format: in vivo, Cyperus rotundus; settings: Preemergence; for Plant response rating, Nutsedge: Rate 125 g/ha
Text: as §1, §2

[11] = test system: cocklebur; test: Test B pre/postemergence cocklebur; format: in vivo, Xanthium strumarium; settings: Preemergence
Text: as §1, §2

[12] = test system: pigweed; test: Test B pre/postemergence pigweed; format: in vivo, Amaranthus retroflexus; settings: Preemergence; for Plant response rating, Redroot pigweed: Rate 125 g/ha
Text: as §1, §2

[13] = test system: blackgrass; test: Test B pre/postemergence blackgrass; format: in vivo, Alopecurus myosuroides; settings: Preemergence
Text: as §1, §2

[14] = test system: morningglory; test: Test B pre/postemergence morningglory; format: in vivo, Ipomoea hederacea; settings: Preemergence; for Plant response rating, Morningglory: Rate 125 g/ha
Text: as §1, §2

[15] = test system: rape; test: Test B pre/postemergence rape; format: in vivo, Brassica napus; settings: Preemergence; for Plant response rating, Rape: Rate 125 g/ha
Text: as §1, §2

[16] = test system: surinam grass; test: Test B pre/postemergence surinam grass; format: in vivo, Brachiaria decumbens; settings: Preemergence
Text: as §1, §2

[17] = Rate 62 g/ha, scale of 0 to 10 where 0 is no effect and 10 is complete control
[18] = scale of 0 to 10 where 0 is no effect and 10 is complete control
[19] = Rate 250 g/ha, scale 0 (no effect) to 10 (complete control)
[20] = Rate 125 g/ha, scale of 0 to 10 where 0 is no effect and 10 is complete control
[21] = Rate 500 g/ha, scale of 0 to 10 where 0 is no effect and 10 is complete control
[22] = Rate 500 g/ha, scale 0 to 10 (0 no effect, 10 complete control)

CC(C)N(C(=O)n1oc(=O)n(C(CF)CCl)c1=O)c1ccc(F)cc1 (racemic) [Compound 707]
9: Plant response rating, Crabgrass [3, 18] | Crabgrass plant response rating [3, 19] | Wild oats plant response rating [5, 19] | Blackgrass plant response rating [13, 17] | B. signalgrass plant response rating [16, 19]
8: Wild oats plant response rating [5, 17] | Plant response rating, Wild oats [5, 18] | Sugarbeets plant response rating [6, 19] | Rape plant response rating [15, 17] | Plant response rating, Rape [15, 18]
2: Wheat plant response rating [4, 17] | Plant response rating, Wheat [4, 18] | Wheat plant response rating [4, 19] | Corn plant response rating [9, 19]
5: Plant response rating, Velvetleaf [1, 18] | Velvetleaf plant response rating [1, 19] | Crabgrass plant response rating [3, 17]
3: Velvetleaf plant response rating [1, 17] | Morningglory plant response rating [14, 17] | Plant response rating, Morningglory [14, 18]
4: Morningglory plant response rating [14, 19]
10: Plant response rating, Giant foxtail [7, 18] | Giant foxtail plant response rating [7, 19] | Bedstraw plant response rating [8, 19] | Plant response rating, Bedstraw [8, 21] | Plant response rating, Redroot pigweed [12, 18] | Redroot pigweed plant response rating [12, 19] | Plant response rating, Blackgrass [13, 20] | Blackgrass plant response rating [13, 19] | Plant response rating, Blackgrass [13, 21] | Rape plant response rating [15, 19] | Plant response rating, B. signalgrass [16, 21]
7: Bedstraw plant response rating [8, 17] | Plant response rating, Bedstraw [8, 20] | Plant response rating, B. signalgrass [16, 20]
6: Sugarbeets plant response rating [6, 17] | Plant response rating, Sugarbeets [6, 18] | Giant foxtail plant response rating [7, 17] | B. signalgrass plant response rating [16, 17]
0: Soybean plant response rating [2, 17] | Plant response rating, Soybean [2, 18] | Soybean plant response rating [2, 19] | Corn plant response rating [9, 17] | Plant response rating, Corn [9, 18] | Nutsedge plant response rating [10, 17] | Plant response rating, Nutsedge [10, 18] | Nutsedge plant response rating [10, 19] | Cocklebur plant response rating [11, 17] | Plant response rating, Cocklebur [11, 20] | Cocklebur plant response rating [11, 19] | Plant response rating, Cocklebur [11, 21]

CC(C)N(C(=O)n1oc(=O)n(C(C)C2=NOCC2)c1=O)c1ccccc1 (racemic) [Compound 729]
9: Plant response rating, Crabgrass [3, 18] | Crabgrass plant response rating [3, 19] | Giant foxtail plant response rating [7, 17] | Plant response rating, Giant foxtail [7, 18] | Giant foxtail plant response rating [7, 19] | Corn plant response rating [9, 22] | Plant response rating, Redroot pigweed [12, 18]
0: Velvetleaf plant response rating [1, 17] | Soybean plant response rating [2, 17] | Plant response rating, Soybean [2, 18] | Wheat plant response rating [4, 17] | Plant response rating, Wheat [4, 18] | Sugarbeets plant response rating [6, 17] | Plant response rating, Sugarbeets [6, 18] | Sugarbeets plant response rating [6, 19] | Bedstraw plant response rating [8, 17] | Plant response rating, Bedstraw [8, 20] | Corn plant response rating [9, 17] | Plant response rating, Corn [9, 18] | Nutsedge plant response rating [10, 17] | Plant response rating, Nutsedge [10, 18] | Cocklebur plant response rating [11, 17] | Plant response rating, Cocklebur [11, 20] | Cocklebur plant response rating [11, 19] | Cocklebur plant response rating [11, 22] | Morningglory plant response rating [14, 17] | Plant response rating, Morningglory [14, 18] | Rape plant response rating [15, 17]
8: Velvetleaf plant response rating [1, 22] | Bedstraw plant response rating [8, 19] | Bedstraw plant response rating [8, 22] | Morningglory plant response rating [14, 22]
6: Wheat plant response rating [4, 22] | Corn plant response rating [9, 19] | Blackgrass plant response rating [13, 17]
5: B. signalgrass plant response rating [16, 17]
10: Crabgrass plant response rating [3, 22] | Wild oats plant response rating [5, 19] | Wild oats plant response rating [5, 22] | Giant foxtail plant response rating [7, 22] | Redroot pigweed plant response rating [12, 19] | Redroot pigweed plant response rating [12, 22] | Plant response rating, Blackgrass [13, 20] | Blackgrass plant response rating [13, 19] | Blackgrass plant response rating [13, 22] | Rape plant response rating [15, 22] | Plant response rating, B. signalgrass [16, 20] | B. signalgrass plant response rating [16, 19] | B. signalgrass plant response rating [16, 22]
4: Velvetleaf plant response rating [1, 19] | Wheat plant response rating [4, 19]
7: Crabgrass plant response rating [3, 17] | Plant response rating, Wild oats [5, 18] | Sugarbeets plant response rating [6, 22] | Redroot pigweed plant response rating [12, 17]
2: Plant response rating, Velvetleaf [1, 18] | Soybean plant response rating [2, 19] | Soybean plant response rating [2, 22] | Wild oats plant response rating [5, 17] | Nutsedge plant response rating [10, 22] | Morningglory plant response rating [14, 19] | Plant response rating, Rape [15, 18]
3: Rape plant response rating [15, 19]
